Measured values: US7423159B2, “Agent for preventing or treating neuropathy” (Takeda Pharmaceutical Company Limited, priority 2002, dated 2008)

melting point | SMILES
145 to 146 °C | CSCc1ccc(NC(=O)/C=C/c2cnn(C)c2-c2ccc(SC)cc2)cc1 [Example 207, (2E)-3-{1-methyl-5-[4-(methylthio)phenyl]-1H-pyrazol-4-yl}-N-{4-[(methylthio)methyl]phenyl}acrylamide]
207 to 208 °C | CCOP(=O)(Cc1ccc(NC(=O)/C=C/c2cnn(Cc3ccccc3)c2-c2ccc(F)cc2)cc1)OCC
214 to 216 °C | CCOP(=O)(Cc1ccc(NC(=O)/C=C/c2cnn(C)c2-c2cccc(Cl)c2)cc1)OCC
236 to 237 °C | Cn1ncc(/C=C/C(=O)Nc2ccc(C[S+]([O-])c3ccccc3)cc2)c1-c1ccc(F)cc1 (stereo not shown) [Example 219, (2E)-3-[5-(4-Fluorophenyl)-1-methyl-1H-pyrazol-4-yl]-N-{4-[(phenylsulfinyl)methyl]phenyl}acrylamide]
196 to 197 °C | COP(=O)(Cc1ccc(NC(=O)/C=C/c2snnc2-c2ccc(F)cc2)cc1)OC
189 to 190 °C | CCOC(=O)c1csc(Cc2ccc(NC(=O)/C=C/c3cnn(C)c3-c3ccc(F)cc3)cc2)n1 [Example 126, Ethyl 2-[4-({(2E)-3-[5-(4-fluorophenyl)-1-methyl-1H-pyrazol-4-yl]prop-2-enoyl}amino)benzyl]-1,3-thiazole-4-carboxylate]
281 to 282 °C | CC(=O)Nc1ccc(NC(=O)/C=C/c2cnn(C)c2-c2ccc(F)cc2)cc1 [Example 166, (2E)-N-[4-(Acetylamino)phenyl]-3-[5-(4-fluorophenyl)-1-methyl-1H-pyrazol-4-yl]acrylamide]
219 to 220 °C | COP(=O)(Cc1ccc(NC(=O)/C=C/c2cnn(C)c2-c2ccccc2)cc1)OC
177 to 178 °C | CCOC(=O)Cc1ccc(NC(=O)/C=C/c2cnn(C)c2-c2ccc(F)cc2)cc1 [Example 109, ethyl [4-({(2E)-3-[5-(4-fluorophenyl)-1-methyl-1H-pyrazol-4-yl]prop-2-enoyl}amino)phenyl]acetate]
300 to 305 °C (dec.) | Cn1ncc(/C=C/C(=O)Nc2ccc(S(N)(=O)=O)cc2)c1-c1ccc(F)cc1 [Example 181, (2E)-N-[4-(Aminosulfonyl)phenyl]-3-[5-(4-fluorophenyl)-1-methyl-1H-pyrazol-4-yl]acrylamide]
110 to 112 °C | Cn1ncc(/C=C/C(=O)Nc2ccc(C(=O)c3ccccc3)cc2)c1-c1ccc(F)cc1 [Example 205, (2E)-N-(4-Benzoylphenyl)-3-[5-(4-fluorophenyl)-1-methyl-1H-pyrazol-4-yl]acrylamide]
201 to 202 °C | COP(=O)(Cc1ccc(NC(=O)/C=C/c2cnn(C)c2-c2ccco2)cc1)OC
205 to 206 °C | Cn1ncc(/C=C/C(=O)Nc2ccc(Cc3nc4c(s3)CCCC4)cc2)c1-c1ccc(F)cc1 [Example 124, (2E)-3-[5-(4-Fluorophenyl)-1-methyl-1H-pyrazol-4-yl]-N-[4-(4,5,6,7-tetrahydro-1,3-benzothiazol-2-ylmethyl)phenyl]acrylamide]
291 to 292 °C | Cn1ncc(/C=C/C(=O)Nc2ccc(C(=O)O)cc2)c1-c1ccc(F)cc1 [Example 234, 4-({(2E)-3-[5-(4-fluorophenyl)-1-methyl-1H-pyrazol-4-yl]prop-2-enoyl}amino)benzoic acid]
217 to 218 °C | Cc1csc(Cc2ccc(NC(=O)/C=C/c3cnn(C)c3-c3ccc(F)cc3)cc2)n1 [Example 127, (2E)-3-[5-(4-Fluorophenyl)-1-methyl-1H-pyrazol-4-yl]-N-(4-[(4-methyl-1,3-thiazol-2-yl)methyl)phenyl]acrylamide]
220 to 221 °C | Cc1coc(Cc2ccc(NC(=O)/C=C/c3cnn(C)c3-c3ccc(F)cc3)cc2)n1 [Example 95, (2E)-3-[5-(4-Fluorophenyl)-1-methyl-1H-pyrazol-4-yl]-N-{4-[(4-methyl-1,3-oxazol-2-yl)methyl]phenyl}acrylamide]
174 to 176 °C | CCOP(=O)(OCC)c1ccc(NC(=O)/C=C/c2cnn(C)c2-c2ccc(F)cc2)cc1

melting point | SMILES
271 to 272 °C | CC(C)c1nccn1Cc1ccc(NC(=O)/C=C/c2cnn(C)c2-c2ccc(F)cc2)cc1 [Example 162, (2E)-3-[5-(4-Fluorophenyl)-1-methyl-1H-pyrazol-4-yl]-N-{4-[(2-isopropyl-1H-imidazol-1-yl)methyl]phenyl}acrylamide]
212 to 214 °C | COP(=O)(Cc1ccc(NC(=O)/C=C/c2cnn(C)c2-c2ccc(Br)cc2)cc1)OC
226 to 227 °C | CCOP(=O)(Cc1ccc(NC(=O)/C=C/c2cnn(CC)c2-c2ccc(F)cc2)cc1)OCC
174 to 175 °C | CCc1coc(Cc2ccc(NC(=O)/C=C/c3cnn(C)c3-c3ccc(F)cc3)cc2)n1 [Example 98, (2E)-N-{4-[(4-Ethyl-1,3-oxazol-2-yl)methyl]phenyl}-3-[5-(4-fluorophenyl)-1-methyl-1H-pyrazol-4-yl]acrylamide]
167 to 168 °C | CCc1nnc(CCc2ccc(NC(=O)/C=C/c3cnn(C)c3-c3ccc(F)cc3)cc2)o1 [Example 88, (2E)-N-{4-[2-(5-Ethyl-1,3,4-oxadiazol-2-yl)ethyl]phenyl}-3-[5-(4-fluorophenyl)-1-methyl-1H-pyrazol-4-yl]acrylamide]
143 to 144 °C | CCOC(=O)Cc1ccc(NC(=O)CCc2cnn(-c3ccccc3)c2-c2ccccc2)cc1 [Example 81, N-[4-(Ethoxycarbonylmethyl)phenyl]-3-(1,5-diphenyl-1H-pyrazol-4-yl)propionamide]
226 to 227 °C | CC(C)CC(=O)NCc1ccc(NC(=O)/C=C/c2cnn(C)c2-c2ccc(F)cc2)cc1 [Example 141, (2E)-3-[5-(4-Fluorophenyl)-1-methyl-1H-pyrazol-4-yl]-N-(4-{[(3-methylbutanoyl)amino]methyl}phenyl)acrylamide]
195 to 197 °C | CCOC(=O)CCC(=O)NCc1ccc(NC(=O)/C=C/c2cnn(C)c2-c2ccc(F)cc2)cc1 [Example 188, Ethyl 4-{[4-({(2E)-3-[5-(4-fluorophenyl)-1-methyl-1H-pyrazol-4-yl]prop-2-enoyl}amino)benzyl]amino}-4-oxobutanoate]
200 to 201 °C | CCc1csc(CCc2ccc(NC(=O)/C=C/c3cnn(C)c3-c3ccc(F)cc3)cc2)n1 [Example 113, (2E)-N-{4-[2-(4-Ethyl-1,3-thiazol-2-yl)ethyl]phenyl}-3-[5-(4-fluorophenyl)-1-methyl-1H-pyrazol-4-yl]acrylamide]
194 to 195 °C | CCOP(=O)(OCC)C(O)c1ccc(NC(=O)/C=C/c2cnn(C)c2-c2ccc(F)cc2)cc1 (stereo not shown)
260 to 261 °C | Cc1cncn1Cc1ccc(NC(=O)/C=C/c2cnn(C)c2-c2ccc(F)cc2)cc1 [Example 201, (2E)-3-[5-(4-Fluorophenyl)-1-methyl-1H-pyrazol-4-yl]-N-{4-[(5-methyl-1H-imidazol-1-yl)methyl]phenyl}acrylamide]
243 to 245 °C | CCOP(=O)(Cc1ccc(NC(=O)/C=C/c2cnn(C)c2-c2ccc(C)cc2)cc1)OCC
226 to 227 °C | Cn1ncc(/C=C/C(=O)Nc2ccc(Cn3nnc4ccccc43)cc2)c1-c1ccc(F)cc1 [Example 177, (2E)-N-[4-(1H-1,2,3-Benzotriazol-1-ylmethyl)phenyl]-3-[5-(4-fluorophenyl)-1-methyl-1H-pyrazol-4-yl]acrylamide]
169 to 172 °C | Cn1ncc(/C=C/C(=O)Nc2ccc(S(=O)(=O)c3ccccc3)cc2)c1-c1ccc(F)cc1 [Example 206, (2E)-3-[5-(4-Fluorophenyl)-1-methyl-1H-pyrazol-4-yl]-N-[4-(phenylsulfonyl)phenyl]acrylamide]
231 to 232 °C | Cn1ncc(/C=C/C(=O)Nc2ccc(Cn3cc4ccccc4n3)cc2)c1-c1ccc(F)cc1 [Example 178, (2E)-3-[5-(4-Fluorophenyl)-1-methyl-1H-pyrazol-4-yl]-N-[4-(2H-indazol-2-ylmethyl)phenyl]acrylamide]
176 to 177 °C | COP(=O)(Cc1ccc(NC(=O)/C=C/c2cnn(C)c2-c2ccoc2)cc1)OC
201 to 202 °C | Cn1ncc(/C=C/C(=O)Nc2ccc(CN)cc2)c1-c1ccc(F)cc1 [Example 137, (2E)-N-[4-(aminomethyl)phenyl]-3-[5-(4-fluorophenyl)-1-methyl-1H-pyrazol-4-yl]acrylamide]
